Assay results taken from PubChem BioAssay AID2060487 (Molecular Pharmacology Branch, DTP, NCI, 2025).

Tested on: 997537-175-T-J1-PDC complex spheroid viability
Experiment: Anticancer human tumor 997537-175-T-J1-PDC patient-derived colon adenocarcinoma cell line growth inhibition [GQUAD]
Settings: for IC50: curve of first compound; for viability, T/C: stronger effect = lower value
In short: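 Multi-cell-type spheroids of tumor cells with HUVEC and mesenchymal stem cells, treated with drug combinations. Concentrations descend in half-log steps from near clinical Cmax, or from 10 microM where Cmax is unknown; viability read-out.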

[1] = second compound 0.0316 µM, first compound 0.0316 µM
[2] = second compound 0.0316 µM, first compound 0.1 µM
[3] = second compound 0.0316 µM, first compound 0.316 µM
[4] = second compound 0.0316 µM, first compound 1 µM
[5] = second compound 0.0316 µM, first compound 3.16 µM
[6] = second compound 0.0316 µM, first compound 10 µM
[7] = second compound 0.1 µM, first compound 0.0316 µM
[8] = second compound 0.1 µM, first compound 0.1 µM
[9] = second compound 0.1 µM, first compound 0.316 µM
[10] = second compound 0.1 µM, first compound 1 µM
[11] = second compound 0.1 µM, first compound 3.16 µM
[12] = second compound 0.1 µM, first compound 10 µM
[13] = second compound 0.316 µM, first compound 0.0316 µM
[14] = second compound 0.316 µM, first compound 0.1 µM
[15] = second compound 0.316 µM, first compound 0.316 µM
[16] = second compound 0.316 µM, first compound 1 µM
[17] = second compound 0.316 µM, first compound 3.16 µM
[18] = second compound 0.316 µM, first compound 10 µM
[19] = second compound 1 µM, first compound 0.0316 µM
[20] = second compound 1 µM, first compound 0.1 µM
[21] = second compound 1 µM, first compound 0.316 µM
[22] = second compound 1 µM, first compound 1 µM
[23] = second compound 1 µM, first compound 3.16 µM
[24] = second compound 1 µM, first compound 10 µM
[25] = second compound 3.16 µM, first compound 0.0316 µM
[26] = second compound 3.16 µM, first compound 0.1 µM
[27] = second compound 3.16 µM, first compound 0.316 µM
[28] = second compound 3.16 µM, first compound 1 µM
[29] = second compound 3.16 µM, first compound 3.16 µM
[30] = second compound 3.16 µM, first compound 10 µM
[31] = second compound 10 µM, first compound 0.0316 µM
[32] = second compound 10 µM, first compound 0.1 µM
[33] = second compound 10 µM, first compound 0.316 µM
[34] = second compound 10 µM, first compound 1 µM
[35] = second compound 10 µM, first compound 3.16 µM
[36] = second compound 10 µM, first compound 10 µM
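Also: spheroids exposed to the agents for 7 days.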
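For viability, T/C in this document: 100% = DMSO vehicle control viability.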

C=CC(=O)N1CCN(c2nc(=O)n(-c3c(C)ccnc3C(C)C)c3nc(-c4c(O)cccc4F)c(F)cc23)C(C)C1 (stereo not given) + CN(C)c1ccc(Nc2c3ccc(NC(=O)CCN4CCCC4)cc3nc3cc(NC(=O)CCN4CCCC4)ccc23)cc1
IC50 (second compound 0.0316 µM): > 10 µM | IC50 (second compound 0.1 µM): > 10 µM | IC50 (second compound 0.316 µM): > 10 µM | IC50 (second compound 1 µM): > 10 µM | IC50 (second compound 3.16 µM): > 10 µM | IC50 (second compound 10 µM): > 10 µM | viability, T/C [1]: 103% | viability, T/C [2]: 99.2% | viability, T/C [3]: 86.6% | viability, T/C [4]: 68.8% | viability, T/C [5]: 70.6% | viability, T/C [6]: 85.6% | viability, T/C [7]: 87.7% | viability, T/C [8]: 88.4% | viability, T/C [9]: 93.5% | viability, T/C [10]: 82.1% | viability, T/C [11]: 95.7% | viability, T/C [12]: 89.8% | viability, T/C [13]: 90.7% | viability, T/C [14]: 98.5% | viability, T/C [15]: 88.7% | viability, T/C [16]: 77.5% | viability, T/C [17]: 92.4% | viability, T/C [18]: 74.7% | viability, T/C [19]: 89.5% | viability, T/C [20]: 93.1% | viability, T/C [21]: 97.7% | viability, T/C [22]: 67.9% | viability, T/C [23]: 104% | viability, T/C [24]: 96.2% | viability, T/C [25]: 69.1% | viability, T/C [26]: 81.1% | viability, T/C [27]: 91.2% | viability, T/C [28]: 83.5% | viability, T/C [29]: 97.6% | viability, T/C [30]: 81.2% | viability, T/C [31]: 77% | viability, T/C [32]: 85.7% | viability, T/C [33]: 91.2% | viability, T/C [34]: 98.4% | viability, T/C [35]: 91.2% | viability, T/C [36]: 93.9%

CC(=O)O[C@H]1C(=O)[C@@]2(C)[C@H]([C@H](OC(=O)c3ccccc3)[C@]3(O)C[C@H](OC(=O)[C@H](O)[C@@H](NC(=O)c4ccccc4)c4ccccc4)C(C)=C1C3(C)C)[C@]1(OC(C)=O)CO[C@@H]1C[C@@H]2O + CN(C)c1ccc(Nc2c3ccc(NC(=O)CCN4CCCC4)cc3nc3cc(NC(=O)CCN4CCCC4)ccc23)cc1
IC50 (second compound 0.0316 µM): 0.0791 µM | IC50 (second compound 0.1 µM): 0.0677 µM | IC50 (second compound 0.316 µM): 0.0746 µM | IC50 (second compound 1 µM): 0.0531 µM | IC50 (second compound 3.16 µM): < 0.0316 µM | IC50 (second compound 10 µM): 0.059 µM | viability, T/C [1]: 75.2% | viability, T/C [2]: 43.6% | viability, T/C [3]: 28.1% | viability, T/C [4]: 21.5% | viability, T/C [5]: 32.2% | viability, T/C [6]: 29.4% | viability, T/C [7]: 67.3% | viability, T/C [8]: 40.9% | viability, T/C [9]: 36.9% | viability, T/C [10]: 21.1% | viability, T/C [11]: 30.7% | viability, T/C [12]: 34.9% | viability, T/C [13]: 78.3% | viability, T/C [14]: 36.5% | viability, T/C [15]: 34.5% | viability, T/C [16]: 19.4% | viability, T/C [17]: 16.6% | viability, T/C [18]: 21.1% | viability, T/C [19]: 71.6% | viability, T/C [20]: 9.98% | viability, T/C [21]: 35.1% | viability, T/C [22]: 18.1% | viability, T/C [23]: 29.6% | viability, T/C [24]: 24.8% | viability, T/C [25]: 37.7% | viability, T/C [26]: 45.5% | viability, T/C [27]: 31.9% | viability, T/C [28]: 18.1% | viability, T/C [29]: 20.1% | viability, T/C [30]: 41.8% | viability, T/C [31]: 72% | viability, T/C [32]: 28.8% | viability, T/C [33]: 34.4% | viability, T/C [34]: 35.7% | viability, T/C [35]: 29.8% | viability, T/C [36]: 27.3%

COc1cccc2c1C(=O)c1c(O)c3c(c(O)c1C2=O)CC(O)(C(=O)CO)CC3OC1CC(N)C(O)C(C)O1 (stereo not given) + CN(C)c1ccc(Nc2c3ccc(NC(=O)CCN4CCCC4)cc3nc3cc(NC(=O)CCN4CCCC4)ccc23)cc1
IC50 (second compound 0.0316 µM): 6.55 µM | IC50 (second compound 0.1 µM): 8.54 µM | IC50 (second compound 0.316 µM): > 10 µM | IC50 (second compound 1 µM): > 10 µM | IC50 (second compound 3.16 µM): > 10 µM | IC50 (second compound 10 µM): > 10 µM | viability, T/C [1]: 98% | viability, T/C [2]: 88.9% | viability, T/C [3]: 99.1% | viability, T/C [4]: 96.3% | viability, T/C [5]: 71.7% | viability, T/C [6]: 37.4% | viability, T/C [7]: 111% | viability, T/C [8]: 88.3% | viability, T/C [9]: 77.6% | viability, T/C [10]: 94.8% | viability, T/C [11]: 96.2% | viability, T/C [12]: 42.9% | viability, T/C [13]: 89.5% | viability, T/C [14]: 88.5% | viability, T/C [15]: 101% | viability, T/C [16]: 102% | viability, T/C [17]: 94.6% | viability, T/C [18]: 56.5% | viability, T/C [19]: 63.7% | viability, T/C [20]: 86.7% | viability, T/C [21]: 101% | viability, T/C [22]: 83.8% | viability, T/C [23]: 97% | viability, T/C [24]: 51.5% | viability, T/C [25]: 74.8% | viability, T/C [26]: 77.1% | viability, T/C [27]: 107% | viability, T/C [28]: 90% | viability, T/C [29]: 99% | viability, T/C [30]: 67.3% | viability, T/C [31]: 94.1% | viability, T/C [32]: 84.2% | viability, T/C [33]: 102% | viability, T/C [34]: 83.3% | viability, T/C [35]: 81% | viability, T/C [36]: 58.2%

Nc1ccn(C2OC(CO)C(O)C2(F)F)c(=O)n1 (stereo not given) + CN(C)c1ccc(Nc2c3ccc(NC(=O)CCN4CCCC4)cc3nc3cc(NC(=O)CCN4CCCC4)ccc23)cc1
IC50 (second compound 0.0316 µM): > 10 µM | IC50 (second compound 0.1 µM): > 10 µM | IC50 (second compound 0.316 µM): > 10 µM | IC50 (second compound 1 µM): 9.28 µM | IC50 (second compound 3.16 µM): > 10 µM | IC50 (second compound 10 µM): > 10 µM | viability, T/C [1]: 99.1% | viability, T/C [2]: 104% | viability, T/C [3]: 110% | viability, T/C [4]: 64.1% | viability, T/C [5]: 70.2% | viability, T/C [6]: 69.5% | viability, T/C [7]: 96.3% | viability, T/C [8]: 98.5% | viability, T/C [9]: 97.1% | viability, T/C [10]: 72.3% | viability, T/C [11]: 88.3% | viability, T/C [12]: 68.8% | viability, T/C [13]: 81.7% | viability, T/C [14]: 97.8% | viability, T/C [15]: 74.5% | viability, T/C [16]: 74% | viability, T/C [17]: 96.8% | viability, T/C [18]: 77.6% | viability, T/C [19]: 66.7% | viability, T/C [20]: 86.9% | viability, T/C [21]: 79.9% | viability, T/C [22]: 87.5% | viability, T/C [23]: 110% | viability, T/C [24]: 47.5% | viability, T/C [25]: 55.6% | viability, T/C [26]: 80.3% | viability, T/C [27]: 79.7% | viability, T/C [28]: 81% | viability, T/C [29]: 84.5% | viability, T/C [30]: 66.2% | viability, T/C [31]: 84% | viability, T/C [32]: 85.1% | viability, T/C [33]: 84.7% | viability, T/C [34]: 89.5% | viability, T/C [35]: 80.8% | viability, T/C [36]: 63.5%

O=c1[nH]cc(F)c(=O)[nH]1 + CN(C)c1ccc(Nc2c3ccc(NC(=O)CCN4CCCC4)cc3nc3cc(NC(=O)CCN4CCCC4)ccc23)cc1
IC50 (second compound 0.0316 µM): > 10 µM | IC50 (second compound 0.1 µM): > 10 µM | IC50 (second compound 0.316 µM): > 10 µM | IC50 (second compound 1 µM): > 10 µM | IC50 (second compound 3.16 µM): > 10 µM | IC50 (second compound 10 µM): > 10 µM | viability, T/C [1]: 94.8% | viability, T/C [2]: 90.6% | viability, T/C [3]: 93.8% | viability, T/C [4]: 75.5% | viability, T/C [5]: 78.7% | viability, T/C [6]: 59.7% | viability, T/C [7]: 92.8% | viability, T/C [8]: 83% | viability, T/C [9]: 87.9% | viability, T/C [10]: 66.7% | viability, T/C [11]: 99.8% | viability, T/C [12]: 84.4% | viability, T/C [13]: 76.3% | viability, T/C [14]: 85.6% | viability, T/C [15]: 76.9% | viability, T/C [16]: 76.7% | viability, T/C [17]: 99.3% | viability, T/C [18]: 87.9% | viability, T/C [19]: 76.3% | viability, T/C [20]: 65.8% | viability, T/C [21]: 87.9% | viability, T/C [22]: 79.3% | viability, T/C [23]: 81.5% | viability, T/C [24]: 99.3% | viability, T/C [25]: 64.2% | viability, T/C [26]: 92.6% | viability, T/C [27]: 86.3% | viability, T/C [28]: 90.7% | viability, T/C [29]: 102% | viability, T/C [30]: 87.4% | viability, T/C [31]: 73.3% | viability, T/C [32]: 79% | viability, T/C [33]: 85.8% | viability, T/C [34]: 80% | viability, T/C [35]: 97% | viability, T/C [36]: 63.5%
